Data published in patent US8815950B2, “Pharmaceutical compositions and method of using levodopa and carbidopa” (Janssen Biotech, Inc., priority 2003, dated 2014).
Converted amounts (≈) assume the structure as drawn. Where two headings read alike, the source gives them in different places.

What was measured:
Assay type in all cases: physicochemical
[1] = Stability of levodopa and carbidopa solutions, HPLC potency test
Experimental: A formulation of: […] This powder mixture was dissolved in water at a concentration of 5.5 mg/ml of levodopa. This solution was filter through a 0.22 micrometer filter (with PVDF membrane) and then stored at temperatures of 4 degrees C., 25 degrees C. and 40 degrees C. […] This powder mixture was dissolved in water at concentration of 1.0 mg/ml of levodopa. This solution was filtered through a 0.22 micrometer filter (with PVDF membrane) and then stored at temperatures of 4 degrees C., 25 degrees C. and 40 degrees C. The sample solutions were submitted for HPLC potency test at each time point. The stability was monitored in percentage change compared to the initial potency.

[2] = Solubility of levodopa in citrate buffer at varying pH and buffer strength
Experimental: Solutions were made using Citric acid and tribasic Sodium Citrate dihydrate Initially a 1.0 M citric acid solution was made by weighing out 19.2 g Citric acid (FW 192.1) into a 100 mL volumetric flask and diluting with HPLC grade water. This was repeated with the Sodium Citrate (FW 294.1), by weighting out 29.4 g of sodium citrate in into a 100 mL volumetric flask and diluting to 100 mL with water. A series of 8 of 20 mL scintillation vials were then labeled and prepared as follows:
These pH adjustments were made with the sodium citrate (also 1.0 M) to keep a consistent molarity with the citrate. From these mother vials, 2 subsequent sets of solution were made for the molar concentrations 0.45 and 0.15 M. 0.45 M is for a 3:1 buffer and 0.15 M is for a 1:1 buffer. These solutions were also pH adjusted with molar equivalent solution to keep the pH value consistent throughout each dilution and after adding the levodopa.

[3] = Levodopa solubility in 3.5 mg/ml ascorbic acid solution; settings: aqueous buffer, thermodynamic from solid, stirring 24 hour at RT, read-out: concentration of levodopa in the filtration (maximum solubility)
Experimental: Levedopa solubility in ascorbic acid solution an ascorbic acid concentration of 3.5 mg/ml was tested. A sample of 3.5 mg/ml ascorbic acid was made by adding 70.0 mg of ascorbic acid into 20 ml of water. Then, 80.0 mg of levodopa powder was dissolved into the 3.5 mg/ml ascorbic sample by stirring for 24 hour at RT. The projected levodopa concentration was 4 mg/ml. The sample was filtered through a 0.22μ PVDF filter to remove the insoluble levodopa. The filtration was assayed by HPLC at 10× dilution with water. The HPLC data indicated the concentration of levodopa in the filtration was 2.0 mg/ml.

[4] = Levodopa/Ascorbic/Carbidopa/at 1/3/0.2 at 4 C., 1 Day
[5] = Levodopa/Ascorbic/Carbidopa/at 1/3/0.2 at 4 C., 2 Day
[6] = Levodopa/Ascorbic/Carbidopa/at 1/3/0.2 at 4 C., 7 Day
[7] = Levodopa/Ascorbic/Carbidopa/at 1/3/0.2 at 4 C., Initial
[8] = Levodopa/Ascorbic/Carbidopa/at 1/3/0.2 at 25 C., 1 Day
[9] = Levodopa/Ascorbic/Carbidopa/at 1/3/0.2 at 25 C., 2 Day
[10] = Levodopa/Ascorbic/Carbidopa/at 1/3/0.2 at 25 C., 7 Day
[11] = Levodopa/Ascorbic/Carbidopa/at 1/3/0.2 at 25 C., Initial
[12] = Levodopa/Ascorbic/Carbidopa/at 1/3/0.2 at 40 C., 1 Day
[13] = Levodopa/Ascorbic/Carbidopa/at 1/3/0.2 at 40 C., 2 Day
[14] = Levodopa/Ascorbic/Carbidopa/at 1/3/0.2 at 40 C., 7 Day
[15] = Levodopa/Ascorbic/Carbidopa/at 1/3/0.2 at 40 C., Initial
[16] = Levodopa/Citric/Carbidopa/Sucrose at 1/3/0.2/1 at 4 C., 1 Day
[17] = Levodopa/Citric/Carbidopa/Sucrose at 1/3/0.2/1 at 4 C., 2 Day
[18] = Levodopa/Citric/Carbidopa/Sucrose at 1/3/0.2/1 at 4 C., 3 Day
[19] = Levodopa/Citric/Carbidopa/Sucrose at 1/3/0.2/1 at 4 C., 7 Day
[20] = Levodopa/Citric/Carbidopa/Sucrose at 1/3/0.2/1 at 4 C., Initial
[21] = Levodopa/Citric/Carbidopa/Sucrose at 1/3/0.2/1 at 25 C., 1 Day
[22] = Levodopa/Citric/Carbidopa/Sucrose at 1/3/0.2/1 at 25 C., 2 Day
[23] = Levodopa/Citric/Carbidopa/Sucrose at 1/3/0.2/1 at 25 C., 3 Day
[24] = Levodopa/Citric/Carbidopa/Sucrose at 1/3/0.2/1 at 25 C., 7 Day
[25] = Levodopa/Citric/Carbidopa/Sucrose at 1/3/0.2/1 at 25 C., Initial
[26] = Levodopa/Citric/Carbidopa/Sucrose at 1/3/0.2/1 at 40 C., 1 Day
[27] = Levodopa/Citric/Carbidopa/Sucrose at 1/3/0.2/1 at 40 C., 2 Day
[28] = Levodopa/Citric/Carbidopa/Sucrose at 1/3/0.2/1 at 40 C., 3 Day
[29] = Levodopa/Citric/Carbidopa/Sucrose at 1/3/0.2/1 at 40 C., 7 Day
[30] = Levodopa/Citric/Carbidopa/Sucrose at 1/3/0.2/1 at 40 C., Initial

For `C[C@@](Cc1ccc(O)c(O)c1)(NN)C(=O)O` [Carbidopa], the “HPLC potency, percentage compared to the initial potency” value (“HPLC potency, percentage” for short) [1, 4] was 101%, the “HPLC potency, percentage” value [1, 5] was 101% and the “HPLC potency, percentage” value [1, 6] was 101%. The “HPLC potency, percentage” value [1, 7] was 100%, the “HPLC potency, percentage” value [1, 8] was 99% and the “HPLC potency, percentage” value [1, 9] was 97%. The “HPLC potency, percentage” value [1, 10] was 87%, the “HPLC potency, percentage” value [1, 11] was 100% and the “HPLC potency, percentage” value [1, 12] was 94%. The “HPLC potency, percentage” value [1, 13] was 88%, the “HPLC potency, percentage” value [1, 14] was 88% and the “HPLC potency, percentage” value [1, 15] was 100%. For the same molecule, the “HPLC potency, percentage” value [1, 16] was 100%, the “HPLC potency, percentage” value [1, 17] was 100% and the “HPLC potency, percentage” value [1, 18] was 101%. The “HPLC potency, percentage” value [1, 19] was 100%, the “HPLC potency, percentage” value [1, 20] was 100% and the “HPLC potency, percentage” value [1, 21] was 98%. The “HPLC potency, percentage” value [1, 22] was 96%, the “HPLC potency, percentage” value [1, 23] was 96% and the “HPLC potency, percentage” value [1, 24] was 91%. For the same molecule, the “HPLC potency, percentage” value [1, 25] was 100%, the “HPLC potency, percentage” value [1, 26] was 91% and the “HPLC potency, percentage” value [1, 27] was 84%. The “HPLC potency, percentage” value [1, 28] was 81%, the “HPLC potency, percentage” value [1, 29] was 75% and the “HPLC potency, percentage” value [1, 30] was 100%.
For `N[C@@H](Cc1ccc(O)c(O)c1)C(=O)O` [Levodopa], the solubility ([2]; pH 1.5, aqueous buffer, Citrate buffer 0.15M pH1.5, read-out: Conc (levodopa solubility)) was 7200 µg/mL (≈ 36.5 mM), the solubility ([2]; pH 1.5, aqueous buffer, Citrate buffer 0.45M pH1.5, read-out: Conc (levodopa solubility)) was 11400 µg/mL (≈ 57.8 mM) and the solubility ([2]; pH 1.5, aqueous buffer, Citrate buffer 1.0M pH 1.5, read-out: Conc (levodopa solubility)) was 17900 µg/mL (≈ 90.9 mM). It also gave a solubility ([2]; pH 2.5, aqueous buffer, Citrate buffer 0.15M pH2.5, read-out: Conc (levodopa solubility)) of 4870 µg/mL (≈ 24.7 mM), a solubility ([2]; pH 2.5, aqueous buffer, Citrate buffer 0.45M pH2.5, read-out: Conc (levodopa solubility)) of 5820 µg/mL (≈ 29.5 mM) and a solubility ([2]; pH 2.5, aqueous buffer, Citrate buffer 1.0M pH 2.5, read-out: Conc (levodopa solubility)) of 7430 µg/mL (≈ 37.7 mM). It also gave a solubility ([2]; pH 3, aqueous buffer, Citrate buffer 0.15M pH3.0, read-out: Conc (levodopa solubility)) of 4210 µg/mL (≈ 21.3 mM), a solubility ([2]; pH 3, aqueous buffer, Citrate buffer 0.45M pH3.0, read-out: Conc (levodopa solubility)) of 4850 µg/mL (≈ 24.6 mM) and a solubility ([2]; pH 3, aqueous buffer, Citrate buffer 1.0M pH 3.0, read-out: Conc (levodopa solubility)) of 5930 µg/mL (≈ 30.1 mM). For the same molecule, the solubility ([2]; pH 3.5, aqueous buffer, Citrate buffer 0.15M pH3.5, read-out: Conc (levodopa solubility)) was 3900 µg/mL (≈ 19.8 mM), the solubility ([2]; pH 3.5, aqueous buffer, Citrate buffer 0.45M pH3.5, read-out: Conc (levodopa solubility)) was 4510 µg/mL (≈ 22.9 mM) and the solubility ([2]; pH 3.5, aqueous buffer, Citrate buffer 1.0M pH 3.5, read-out: Conc (levodopa solubility)) was 5230 µg/mL (≈ 26.5 mM). It also gave a solubility ([2]; pH 4, aqueous buffer, Citrate buffer 0.15M pH4.0, read-out: Conc (levodopa solubility)) of 3790 µg/mL (≈ 19.2 mM), a solubility ([2]; pH 4, aqueous buffer, Citrate buffer 0.45M pH4.0, read-out: Conc (levodopa solubility)) of 4250 µg/mL (≈ 21.6 mM) and a solubility ([2]; pH 4, aqueous buffer, Citrate buffer 1.0M pH 4.0, read-out: Conc (levodopa solubility)) of 4650 µg/mL (≈ 23.6 mM). For the same molecule, the solubility ([2]; pH 4.5, aqueous buffer, Citrate buffer 0.15M pH4.5, read-out: Conc (levodopa solubility)) was 3880 µg/mL (≈ 19.7 mM), the solubility ([2]; pH 4.5, aqueous buffer, Citrate buffer 0.45M pH4.5, read-out: Conc (levodopa solubility)) was 4250 µg/mL (≈ 21.6 mM) and the solubility ([2]; pH 4.5, aqueous buffer, Citrate buffer 1.0M pH 4.5, read-out: Conc (levodopa solubility)) was 4440 µg/mL (≈ 22.5 mM). It also gave a solubility ([2]; pH 5, aqueous buffer, Citrate buffer 0.15M pH5.0, read-out: Conc (levodopa solubility)) of 3880 µg/mL (≈ 19.7 mM), a solubility ([2]; pH 5, aqueous buffer, Citrate buffer 0.45M pH5.0, read-out: Conc (levodopa solubility)) of 4150 µg/mL (≈ 21 mM) and a solubility ([2]; pH 5, aqueous buffer, Citrate buffer 1.0M pH 5.0, read-out: Conc (levodopa solubility)) of 4170 µg/mL (≈ 21.1 mM). The solubility ([2]; pH 6, aqueous buffer, Citrate buffer 0.15M pH6.0, read-out: Conc (levodopa solubility)) was 3950 µg/mL (≈ 20 mM), the solubility ([2]; pH 6, aqueous buffer, Citrate buffer 0.45M pH6.0, read-out: Conc (levodopa solubility)) was 4160 µg/mL (≈ 21.1 mM) and the solubility ([2]; pH 6, aqueous buffer, Citrate buffer 1.0M pH 6.0, read-out: Conc (levodopa solubility)) was 3870 µg/mL (≈ 19.6 mM). For the same molecule, the “HPLC potency, percentage” value [1, 4] was 100%, the “HPLC potency, percentage” value [1, 5] was 100% and the “HPLC potency, percentage” value [1, 6] was 102%. The “HPLC potency, percentage” value [1, 7] was 100%, the “HPLC potency, percentage” value [1, 8] was 100% and the “HPLC potency, percentage” value [1, 9] was 100%. The “HPLC potency, percentage” value [1, 10] was 102%, the “HPLC potency, percentage” value [1, 11] was 100% and the “HPLC potency, percentage” value [1, 12] was 100%. The “HPLC potency, percentage” value [1, 13] was 101%, the “HPLC potency, percentage” value [1, 14] was 104% and the “HPLC potency, percentage” value [1, 15] was 100%. For the same molecule, the “HPLC potency, percentage” value [1, 16] was 100%, the “HPLC potency, percentage” value [1, 17] was 100% and the “HPLC potency, percentage” value [1, 18] was 100%. For the same molecule, the “HPLC potency, percentage” value [1, 19] was 100%, the “HPLC potency, percentage” value [1, 20] was 100% and the “HPLC potency, percentage” value [1, 21] was 100%. For the same molecule, the “HPLC potency, percentage” value [1, 22] was 100%, the “HPLC potency, percentage” value [1, 23] was 100% and the “HPLC potency, percentage” value [1, 24] was 100%. The “HPLC potency, percentage” value [1, 25] was 100%, the “HPLC potency, percentage” value [1, 26] was 100% and the “HPLC potency, percentage” value [1, 27] was 100%. For the same molecule, the “HPLC potency, percentage” value [1, 28] was 100%, the “HPLC potency, percentage” value [1, 29] was 100% and the “HPLC potency, percentage” value [1, 30] was 100%. The solubility at 24 h [3] was 2000 µg/mL (≈ 10.1 mM).
